# Test results from the NIST ThermoML archive (doi:10.1021/je060032n).
# ± gives the expanded uncertainty stated by the source.
# Experiment: refractive index (Na D-line) (dimensionless); xn = mol fraction of the nth substance listed
# Details: 101 kPa, Liquid, Standard Abbe refractometry
structure (smiles),measurement,setting,value
NCCNCCO [N-(2-aminoethyl)ethanolamine] + O,refractive index,"298.15 K, x1 = 0.05",1.37012 ± 0.00044
same,refractive index,"298.15 K, x1 = 0.07",1.38204 ± 0.00039
same,refractive index,"298.15 K, x1 = 0.1",1.39796 ± 0.00044
same,refractive index,"298.15 K, x1 = 0.2",1.43314 ± 0.00085
same,refractive index,"298.15 K, x1 = 0.3",1.45253 ± 0.00041
same,refractive index,"298.15 K, x1 = 0.4",1.46321 ± 0.00034
same,refractive index,"298.15 K, x1 = 0.5",1.4703 ± 0.00038
same,refractive index,"298.15 K, x1 = 0.5996",1.47498 ± 0.00043
same,refractive index,"298.15 K, x1 = 0.7011",1.47851 ± 0.00046
same,refractive index,"298.15 K, x1 = 0.8002",1.48101 ± 0.00048
same,refractive index,"298.15 K, x1 = 0.8979",1.48289 ± 0.0005
same,refractive index,"298.15 K, x1 = 1",1.48454 ± 0.00052
same,refractive index,"303.15 K, x1 = 0.05",1.36931 ± 0.00045
same,refractive index,"303.15 K, x1 = 0.07",1.3811 ± 0.00043
same,refractive index,"303.15 K, x1 = 0.1",1.39682 ± 0.00039
same,refractive index,"303.15 K, x1 = 0.2",1.4318 ± 0.00037
same,refractive index,"303.15 K, x1 = 0.3",1.45087 ± 0.00042
same,refractive index,"303.15 K, x1 = 0.4",1.46158 ± 0.00045
same,refractive index,"303.15 K, x1 = 0.5",1.46857 ± 0.00047
same,refractive index,"303.15 K, x1 = 0.5996",1.47321 ± 0.00049
same,refractive index,"303.15 K, x1 = 0.7011",1.47671 ± 0.00049
same,refractive index,"303.15 K, x1 = 0.8002",1.47918 ± 0.0005
same,refractive index,"303.15 K, x1 = 0.8979",1.48103 ± 0.00051
same,refractive index,"303.15 K, x1 = 1",1.48269 ± 0.00053
same,refractive index,"313.15 K, x1 = 0.05",1.36749 ± 0.00046
same,refractive index,"313.15 K, x1 = 0.07",1.37909 ± 0.00043
same,refractive index,"313.15 K, x1 = 0.1",1.39453 ± 0.00042
same,refractive index,"313.15 K, x1 = 0.2",1.4289 ± 0.00045
same,refractive index,"313.15 K, x1 = 0.3",1.44762 ± 0.00047
same,refractive index,"313.15 K, x1 = 0.4",1.45811 ± 0.00048
same,refractive index,"313.15 K, x1 = 0.5",1.46502 ± 0.00049
same,refractive index,"313.15 K, x1 = 0.5996",1.46961 ± 0.00049
same,refractive index,"313.15 K, x1 = 0.7011",1.47308 ± 0.0005
same,refractive index,"313.15 K, x1 = 0.8002",1.47552 ± 0.00051
same,refractive index,"313.15 K, x1 = 0.8979",1.47734 ± 0.00052
same,refractive index,"313.15 K, x1 = 1",1.47884 ± 0.00053
same,refractive index,"323.15 K, x1 = 0.05",1.36542 ± 0.00046
same,refractive index,"323.15 K, x1 = 0.07",1.37696 ± 0.00043
same,refractive index,"323.15 K, x1 = 0.1",1.39214 ± 0.00042
same,refractive index,"323.15 K, x1 = 0.2",1.42583 ± 0.00046
same,refractive index,"323.15 K, x1 = 0.3",1.44425 ± 0.00047
same,refractive index,"323.15 K, x1 = 0.4",1.45463 ± 0.00048
same,refractive index,"323.15 K, x1 = 0.5",1.46146 ± 0.00049
same,refractive index,"323.15 K, x1 = 0.5996",1.46604 ± 0.0005
same,refractive index,"323.15 K, x1 = 0.7011",1.46938 ± 0.00051
same,refractive index,"323.15 K, x1 = 0.8002",1.47177 ± 0.00051
same,refractive index,"323.15 K, x1 = 0.8979",1.47359 ± 0.00052
same,refractive index,"323.15 K, x1 = 1",1.47516 ± 0.00053
same,refractive index,"333.15 K, x1 = 0.05",1.36367 ± 0.00052
same,refractive index,"333.15 K, x1 = 0.07",1.37507 ± 0.00045
same,refractive index,"333.15 K, x1 = 0.1",1.38992 ± 0.00057
same,refractive index,"333.15 K, x1 = 0.2",1.42264 ± 0.00087
same,refractive index,"333.15 K, x1 = 0.3",1.44087 ± 0.00069
same,refractive index,"333.15 K, x1 = 0.4",1.45107 ± 0.00058
same,refractive index,"333.15 K, x1 = 0.5",1.45777 ± 0.00055
same,refractive index,"333.15 K, x1 = 0.5996",1.46223 ± 0.00054
same,refractive index,"333.15 K, x1 = 0.7011",1.4656 ± 0.00053
same,refractive index,"333.15 K, x1 = 0.8002",1.46805 ± 0.00053
same,refractive index,"333.15 K, x1 = 0.8979",1.46977 ± 0.00053
same,refractive index,"333.15 K, x1 = 1",1.47128 ± 0.00054
